Test results as given in ChEMBL document CHEMBL5604062, “ASAP - ZIKV NS2B-NS3 protease fluorescence dose response” (2024).
“And” between values parts separate entries of the source, which are not always exact repeats. Identical values can stand only once.

What was measured:
Nonstructural protein 3 [1] = target: T1, Nonstructural protein 3 (Zika virus, UniProt A0A024AXB9); test: (§1) Functional biochemical assay to identify treatments for viral infectious disease that targets Zika NS2B-NS3 protease. Utilizing a direct enzyme activity measurement method, reading the fluorescence intensity is used to characterize the relative potency of inhibitors as IC50. Synthetic construct has been made based on Zika virus (strain PRVABC59) by Centre for Medicines Discovery, University of Oxford, and the assay has been performed by Stanford University.The protocol is publicly available: dx.doi.org/10.17504/protocols.io.x54v9r83zv3e/v1
Nonstructural protein 3 [2] = target: T1, Nonstructural protein 3; test: Functional biochemical assay to identify treatments for viral infectious disease that targets Zika NS2B-NS3 protease. Utilizing a direct enzyme activity measurement method, reading the fluorescence intensity is used to characterize the relative potency of inhibitors as IC50.; set-up: species or system PRVABC59
Nonstructural protein 3 [3] = target: T1, Nonstructural protein 3; test: as §1, with “Enamine biological services, Bienta Ltd.The” for “Stanford University.The”, “dx.doi.org/10.17504/protocols.io.36wgqn273gk5/v1” for “dx.doi.org/10.17504/protocols.io.x54v9r83zv3e/v1”

T1 sequence (A0A024AXB9 whole entry): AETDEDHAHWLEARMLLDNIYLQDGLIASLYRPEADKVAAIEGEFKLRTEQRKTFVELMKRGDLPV

`O=Cc1ccc(N2CCCCCC2)cc1` showed an IC50 (Nonstructural protein 3 [1]) of 65.8 µM.
With `O=Cc1nc(-c2ccccc2Cl)n2ccccc12` the IC50 (Nonstructural protein 3 [1]) was 46.3 µM.
`Cc1c(C=O)c2ccccn2c1C(=O)c1ccncc1` was tested, and the IC50 (Nonstructural protein 3 [1]) was 36.4 µM.
`O=Cc1ccc(N2CCCCC2)cc1` showed an IC50 (Nonstructural protein 3 [1]) of 49.8 µM.
`CN(C)c1ccc(C=C(C#N)C(N)=O)cc1` gave an IC50 (Nonstructural protein 3 [1]) of 31 µM.
`Cc1nc(C=O)c2ccccn12` was tested, and the IC50 (Nonstructural protein 3 [1]) was 64.5 µM.
`O=Cc1ccc(N2CCC(C(=O)O)CC2)cc1` was tested, and the IC50 (Nonstructural protein 3 [1]) was 53.7 µM.
In the case of `Cc1cc(NS(=O)(=O)c2ccc(S(=O)(=O)F)cc2)c[nH]c1=O`, the IC50 (Nonstructural protein 3 [1]) is reported as 13.1 µM.
`O=Cc1ccc(N2CCC(C(=O)O)CC2)o1` showed an IC50 (Nonstructural protein 3 [1]) of 30.4 µM.
Work on `Cc1c(C(=O)Nc2cccc(CS(C)(=O)=O)c2)cc(C2CC2)n1C` yielded an IC50 (Nonstructural protein 3 [2]) greater than 25 µM and an IC50 (Nonstructural protein 3 [3]) greater than 25 µM.
Work on `O=C(NCC(F)F)[C@H](Nc1ncc2c(n1)CNC2)c1cc(Cl)cc(C2CC2)c1` yielded an IC50 (Nonstructural protein 3 [2]) of 4.19 µM and an IC50 (Nonstructural protein 3 [3]) of 19.6 µM.
With `NC(=O)COc1ccc(Br)cc1[C@H](Nc1ccc2c(c1)CNC2)C(=O)NCC(F)F` the IC50 (Nonstructural protein 3 [2]) was 0.069 µM and 0.055 µM and the IC50 (Nonstructural protein 3 [3]) was 0.193 µM and 0.233 µM.
Compound `CC(C)CNC(=O)c1cc(Cl)cc2[nH]c(-c3cccc(C#N)c3)nc12` has an IC50 (Nonstructural protein 3 [2]) greater than 25 µM and an IC50 (Nonstructural protein 3 [3]) greater than 25 µM.
For `Cn1nc(CNc2cc(-c3cccnc3)ccn2)cc1C1CC1`, the IC50 (Nonstructural protein 3 [2]) was greater than 25 µM and the IC50 (Nonstructural protein 3 [3]) was greater than 25 µM.
In the case of `CO[C@H]1Cc2ccc(NC(=O)c3cc(C4CC4)n(C)c3C)cc2C1`, the IC50 (Nonstructural protein 3 [2]) is reported as greater than 25 µM and the IC50 (Nonstructural protein 3 [3]) is reported as greater than 25 µM.
`Cc1c(C(=O)Nc2ccc3c(c2)C[C@H](C(N)=O)O3)cc(C2CC2)n1C` showed an IC50 (Nonstructural protein 3 [2]) greater than 25 µM and an IC50 (Nonstructural protein 3 [3]) greater than 25 µM.
In the case of `Cc1c(C(=O)Nc2ccc3c(c2)CCC(=O)N3CC2CCC2)cc(C2CC2)n1C`, the IC50 (Nonstructural protein 3 [2]) is reported as greater than 25 µM and the IC50 (Nonstructural protein 3 [3]) is reported as greater than 25 µM.
`Clc1cc(CNc2ncc3c(n2)CNC3)c2cn[nH]c2c1` showed an IC50 (Nonstructural protein 3 [2]) greater than 25 µM and an IC50 (Nonstructural protein 3 [3]) greater than 25 µM.
`Clc1cc(CNc2ccc3c(n2)CNC3)c2cn[nH]c2c1` showed an IC50 (Nonstructural protein 3 [2]) greater than 25 µM and an IC50 (Nonstructural protein 3 [3]) greater than 25 µM.
Work on `Cc1c(C(=O)Nc2cccc(-c3nc(C4CC4)no3)c2)cc(C2CC2)n1C` yielded an IC50 (Nonstructural protein 3 [2]) greater than 25 µM and an IC50 (Nonstructural protein 3 [3]) greater than 25 µM.
`CC(=O)N1CC[C@]2(C1)C(=O)Nc1cccc(C(=O)Nc3ccc4c(c3)CNC4)c12` showed an IC50 (Nonstructural protein 3 [2]) of 0.126 µM and an IC50 (Nonstructural protein 3 [3]) of 0.714 µM.
`N#Cc1cccc(-c2nc3c(C(=O)Nc4cccc(F)c4)cc(Cl)cc3[nH]2)c1` showed an IC50 (Nonstructural protein 3 [2]) greater than 25 µM and an IC50 (Nonstructural protein 3 [3]) greater than 25 µM.
In the case of `CC(C)NC(=O)C[C@H]1NCc2cc(NC(=O)c3cc(Cl)cc4[nH]ncc34)ccc21`, the IC50 (Nonstructural protein 3 [2]) is reported as 0.185 µM and the IC50 (Nonstructural protein 3 [3]) is reported as 1.06 µM and 2.3 µM.
`CC[C@H]1CO[C@H](C)CN1c1ccc(C=O)cn1` was tested, and the IC50 (Nonstructural protein 3 [1]) was 43 µM.
With `O=C(NCC(F)F)[C@H](Nc1ccc2c(c1)CNC2)c1cc(Cl)cc2cccnc12` the IC50 (Nonstructural protein 3 [2]) was 0.016 µM and the IC50 (Nonstructural protein 3 [3]) was 0.053 µM and 0.076 µM.
In the case of `CC1(C)NCc2cc(NC(=O)c3cc(F)cc4[nH]ncc34)ccc21`, the IC50 (Nonstructural protein 3 [2]) is reported as 9.19 µM and the IC50 (Nonstructural protein 3 [3]) is reported as 18.1 µM and > 25 µM.
In the case of `Nc1ccc2ccc(B(O)O)cc2c1`, the IC50 (Nonstructural protein 3 [2]) is reported as greater than 99.5 µM and the IC50 (Nonstructural protein 3 [1]) is reported as 2.5 µM.
`Cc1c(C(=O)Nc2cccc(-c3ccoc3)c2)cc(C2CC2)n1C` showed an IC50 (Nonstructural protein 3 [2]) greater than 25 µM and an IC50 (Nonstructural protein 3 [3]) greater than 25 µM.
For `CN(C)C(=O)C[C@H]1NCc2cc(NC(=O)c3cc(Cl)cc4[nH]ncc34)ccc21`, the IC50 (Nonstructural protein 3 [2]) was 0.481 µM and the IC50 (Nonstructural protein 3 [3]) was 2.12 µM and 2.36 µM.
With `CS(=O)(=O)NC(=O)C[C@H]1NCc2cc(NC(=O)c3cc(Cl)cc4[nH]ncc34)ccc21` the IC50 (Nonstructural protein 3 [2]) was 0.65 µM and the IC50 (Nonstructural protein 3 [3]) was 2.21 µM and 1.7 µM.
In the case of `CC(C)(C)NC(=O)C[C@H]1NCc2cc(NC(=O)c3cc(Cl)cc4[nH]ncc34)ccc21`, the IC50 (Nonstructural protein 3 [2]) is reported as 0.167 µM and the IC50 (Nonstructural protein 3 [3]) is reported as 1.07 µM and 0.985 µM.
With `C[C@H]1NCc2ccc(NC(=O)c3cc(Cl)cc4[nH]ncc34)cc21` the IC50 (Nonstructural protein 3 [2]) was 1.51 µM and the IC50 (Nonstructural protein 3 [3]) was 3.58 µM and 3.95 µM.
In the case of `CNC(=O)C[C@H]1NCc2cc(NC(=O)c3cc(Cl)cc4[nH]ncc34)ccc21`, the IC50 (Nonstructural protein 3 [2]) is reported as 0.187 µM and the IC50 (Nonstructural protein 3 [3]) is reported as 0.999 µM and 1.08 µM.
In the case of `C[C@]1(S(C)(=O)=O)C(=O)Nc2cc(F)cc(C(=O)Nc3ccc4c(c3)CNC4)c21`, the IC50 (Nonstructural protein 3 [2]) is reported as 3.99 µM and the IC50 (Nonstructural protein 3 [3]) is reported as 7.76 µM and 9.21 µM.
`Cc1c(C(=O)Nc2ccc3c(c2F)CCN(C)C3=O)cc(C2CC2)n1C` showed an IC50 (Nonstructural protein 3 [2]) greater than 25 µM and an IC50 (Nonstructural protein 3 [3]) greater than 25 µM.
Compound `Cc1c(C(=O)Nc2cccc(Cn3cccn3)c2)cc(C2CC2)n1C` has an IC50 (Nonstructural protein 3 [2]) greater than 25 µM and an IC50 (Nonstructural protein 3 [3]) greater than 25 µM.
For `O=C(Nc1ccc2c(c1)CN[C@H]2C1CC1)c1cc(F)cc2[nH]ncc12`, the IC50 (Nonstructural protein 3 [2]) was 0.215 µM and the IC50 (Nonstructural protein 3 [3]) was 0.255 µM and 0.55 µM.
`Cc1c(C(=O)Nc2cc(C3CCOCC3)ccn2)cc(C2CC2)n1C` showed an IC50 (Nonstructural protein 3 [2]) greater than 25 µM and an IC50 (Nonstructural protein 3 [3]) greater than 25 µM.
`N#Cc1cccc(-c2nc3c(C(=O)Nc4ccc(F)cc4)cc(Cl)cc3[nH]2)c1` was tested, and the IC50 (Nonstructural protein 3 [2]) was greater than 25 µM and the IC50 (Nonstructural protein 3 [3]) was greater than 25 µM.
`Cc1c(C(=O)Nc2ccc3c(c2)C(=O)NC3)cc(C2CC2)n1C` was tested, and the IC50 (Nonstructural protein 3 [2]) was greater than 25 µM and the IC50 (Nonstructural protein 3 [3]) was greater than 25 µM.
`COC(=O)[C@H]1NCc2cc(NC(=O)c3cc(F)cc4[nH]ncc34)ccc21` was tested, and the IC50 (Nonstructural protein 3 [2]) was 4.84 µM and the IC50 (Nonstructural protein 3 [3]) was 21.5 µM.
`N#Cc1cccc(-c2nc3c(C(=O)Nc4ccccn4)cc(Cl)cc3[nH]2)c1` gave an IC50 (Nonstructural protein 3 [2]) greater than 25 µM and an IC50 (Nonstructural protein 3 [3]) greater than 25 µM.
`COCCN(C)C(=O)[C@H](Nc1ccc2c(c1)CNC2)c1cc(Cl)cc(C2CC2)c1` was tested, and the IC50 (Nonstructural protein 3 [2]) was 1.21 µM and the IC50 (Nonstructural protein 3 [3]) was 4.62 µM.
`CC(=O)N(c1ccc2c(c1)CNC2)[C@]1(c2cc(Cl)cc(C3CC3)c2)CCCN(C)C1=O` showed an IC50 (Nonstructural protein 3 [2]) greater than 25 µM and an IC50 (Nonstructural protein 3 [3]) greater than 25 µM.
Work on `Cc1c(C(=O)Nc2cccc(CN3CCCC3=O)c2)cc(C2CC2)n1C` yielded an IC50 (Nonstructural protein 3 [2]) greater than 25 µM and an IC50 (Nonstructural protein 3 [3]) greater than 25 µM.
`CN(C)C(=O)C[C@H]1NCc2cc(NC(=O)c3cc(F)cc4[nH]ncc34)ccc21` was tested, and the IC50 (Nonstructural protein 3 [2]) was 0.487 µM and the IC50 (Nonstructural protein 3 [3]) was 0.502 µM and 1.32 µM.
With `C[C@H]1NCc2cc(NC(=O)c3cc(F)cc4[nH]ncc34)ccc21` the IC50 (Nonstructural protein 3 [2]) was 0.488 µM and the IC50 (Nonstructural protein 3 [3]) was 0.646 µM and 1.46 µM.
`Cc1c(C=O)c2ccccn2c1C#N` showed an IC50 (Nonstructural protein 3 [1]) of 24.9 µM.
`O=C1Cc2c(cccc2C(=O)Nc2ccc(N3CCOC3=O)nc2)N1` was tested, and the IC50 (Nonstructural protein 3 [2]) was greater than 25 µM and the IC50 (Nonstructural protein 3 [3]) was greater than 25 µM.
`Cc1cc(NC(=O)c2cc(C3CC3)n(C)c2C)ccc1OC1CCOCC1` showed an IC50 (Nonstructural protein 3 [2]) greater than 25 µM and an IC50 (Nonstructural protein 3 [3]) greater than 25 µM.
For `O=C(Nc1ccc2c(c1)CN[C@H]2C(=O)O)c1cc(F)cc2[nH]ncc12`, the IC50 (Nonstructural protein 3 [2]) was 1.33 µM and the IC50 (Nonstructural protein 3 [3]) was 3.18 µM and 3.28 µM.
For `Cc1c(C(=O)Nc2ccc3c(c2)CN(C)C3=O)cc(C2CC2)n1C`, the IC50 (Nonstructural protein 3 [2]) was greater than 25 µM and the IC50 (Nonstructural protein 3 [3]) was greater than 25 µM.
`O=C(NCC(F)F)[C@H](Nc1ccc2c(n1)CNC2)c1cc(Cl)cc(C2CC2)c1` gave an IC50 (Nonstructural protein 3 [2]) of 1.33 µM and an IC50 (Nonstructural protein 3 [3]) of 5.5 µM.
`Cn1nc(CNc2cc([C@H]3CCOC3)ccn2)cc1C1CC1` gave an IC50 (Nonstructural protein 3 [2]) greater than 25 µM and an IC50 (Nonstructural protein 3 [3]) greater than 25 µM.
`O=C([C@H](Nc1ccc2c(c1)CNC2)c1cc(Cl)cc(C2CC2)c1)N1CCOCC1` gave an IC50 (Nonstructural protein 3 [2]) of 0.401 µM and an IC50 (Nonstructural protein 3 [3]) of 2.1 µM.
